Laboratory results: patent US20250376698A1, “COMPOSITIONS AND METHODS FOR PROMOTING LIVER REGENERATION BY GENE EDITING IN METABOLIC LIVER DISEASE” (priority 2022, published 2025)
Like-named read-outs stand apart in the source and are kept apart here.

Experiments:
[1] = tested on: canine G6PC locus; assay: Nested integration PCR in transfected GSD Ia dog fibroblasts; format: cell-based
Method: Next, a nested PCR reaction was performed to detect levels of DNA integration in genomic DNA in the transfected fibroblasts. Fibroblast DNA were extracted using the Wizard Genomic DNA Purification Kit (Promega, Madison, WI, USA). The canine G6Pc locus was amplified by Q5 Taq Polymerase (NEB, Ipswich, MA, USA) with the following reagents: 5 μL of Q5 buffer, 5 μL of high GC enhancer solution, 2 μL of 2.5 mM dNTP mix, 1.25 μL of 10 uM primer P1 (5′-[…]-3′, SEQ ID NO: 59)), 1.25 μL of 10 uM primer P4 (5′-[…]-3′, SEQ ID NO: 62)), 9.25 μL of water, 1 μL (100 ng) of genomic DNA, and 0.25 μL of Q5 Taq Polymerase. Cycling conditions were 35 cycles of denaturation at 95° C. for 30 s, annealing at 59° C. for 30 s, extension at 72° C. for 2 min, followed by incubation at 4° C. One microliter of first-round PCR products was used in a nested reaction with the same conditions except primers were P2 (5′-[…]-3′ (SEQ ID NO: 60)) and P3 (5′-[…]-3′ (SEQ ID NO: 61)) and cycling was 30 cycles. Control primers were P5 (5′-[…]-3′ (SEQ ID NO: 63)) and P6 (5′-[…]-3′ (SEQ ID NO: 64)).
Sequencing of the integration PCR product (total sequence: SEQ ID NO: 52) confirmed the donor sequence was inserted in the dog G6PC gene at the exon 1/intron 1 boundary. […]

[2] = tested on: GSD Ia puppies; assay: Clinical course (hypoglycemia, survival) of GSD Ia puppies treated as neonates; format: in vivo, dog
Source text: In this example, puppies with GSD Ia were initially treated with AAV-CRISPR/Cas9 and AAV-cG6PC (Donor) to perform neonatal genome editing at 2 days of age, followed by gene replacement therapy with one or more alternative serotypes of AAV to control symptoms of GSD Ia at the indicated ages for the individual puppies (Puppy 1 shown in green, Puppy 2 in purple in FIG. 4A, see Table 3 below for details). The control group of dogs were those described in Example 2 that received 3 doses of gene replacement therapy during infancy.
As shown in FIG. 4A and described in Table 3 below, two puppies with GSD Ia were treated with genome editing as neonates at a 5:1 ratio of AAV7-cG6PC and AAV7-SaCas9. One puppy was dosed at 4×10^13 vp/kg AAV7-cG6PC and 8×10^12 vp/kg AAV7-SaCas9. The other was dosed with 5×10^13 vp/kg AAV7-cG6PC and […] AAV7-SaCas9. […] Specifically, one puppy (the first described above) received two doses of gene replacement therapy (e.g., AAV10 G6Pase at 3×10^12 vp/kg and AAV8 G6Pase at 1×10^13 vp/kg) at ages 2 and 3 months, respectively. The second puppy received only one gene replacement therapy at 2 months of age (e.g., AAV9 G6Pase at 3×10^13 vp/kg). Table 3 below details the treatment protocols used for both puppies.

[3] = Method: Vector genomes in liver were quantified with qPCR. Briefly, AAV vector genome copy number was measured by quantitative real-time PCR with liver genomic DNA and normalized to β-actin. Plasmid DNA corresponding to 0.01 to 100 copies of canine G6Pase gene (in 500 ng genomic DNA) was used in a standard curve. qPCR was performed on a Lightcycler 480 (Roche Diagnostics, Basel, Switzerland) using SYBR Green mix (Thermo-Fisher Scientific, Waltham, MA) and the following primers: cG6Pc Fwd (5′-[…]-3′, SEQ ID NO: 65), cG6Pc Rev (5′-[…]-3′, SEQ ID NO: 66), hG6PC Fwd (5′-[…]-3′, SEQ ID NO: 67), hG6PC Rev (5′-[…]-3′, SEQ ID NO: 68), saCas9 Fwd (5′-[…]-3′, SEQ ID NO: 69), saCas9 Rev (5′-[…]-3′, SEQ ID NO: 70), cB-actin Fwd (5′-[…]-3′, SEQ ID NO: 71), cB-actin Rev (5′-[…]-3′, SEQ ID NO: 72). Cycling conditions were 95° C. for 5 min, followed by 45 cycles of 95° C. for 10 s, 60° C. for 10 s, and 72° C. for 20 s followed by acquisition.
[4] = tested on: G6Pase activity in liver; assay: Liver G6Pase activity in GSD Ia dogs; format: in vivo, dog; details: 32 months of age, before CRISPR (BC), after gene replacement as neonates
Method: G6Pase activity and glycogen levels were analyzed at 4- and 16-months following genome editing at 34 months of age as described in (Koeberl, D. et al., (2006). Early, sustained efficacy of adeno-associated virus vector-mediated gene therapy in glycogen storage disease type Ia. Gene Therapy. 13, 1281-1289). Both assays reflected corrections of the biochemical abnormalities in comparison with untreated affected controls. Normal activity was measured in a group of three unaffected dogs (two carriers and one wildtype; both genotypes are accepted as normal controls in published studies of animals with GSD Ia). Briefly, liver biopsy tissues, obtained as described in Example 2, were flash-frozen and stored at −70° C. Glycogen content was measured by complete digestion of polysaccharide using amyloglucosidase (Sigma Chemical Co., St. Louis, MO). The structure of the polysaccharide was inferred by using phosphorylase free of the debranching enzyme to measure the yield of glucose-1-phosphate. Specific G6Pase activity was measured by using glucose-6-phosphate as substrate after subtraction of nonspecific phosphatase activity as estimated by β-glycerophosphate.

[5] = dogs treated as adults, months 4 and 16 after gene editing vectors
[6] = puppies treated as neonates, Months 4 and 16

Substance | transgene integration (integration PCR) [1] | hypoglycemia and survival in the first two months of life ([2]; GSD Ia puppies treated at 2 days of age) | vector copy number in liver, compared with AAV-G6Pase ([3]; dogs treated as adults, 4 months following gene editing) | vector genomes in liver (qPCR) [3, 5] | vector genomes in liver (qPCR) [3, 6] | G6Pase activity in liver [4] | effect of gene replacement vector on recurrent hypoglycemia ([2]; puppies, given at 2 (and 3) months) | vector copy number in liver ([3]; dogs treated as adults, 4 months following gene editing (4M))
AAV-cG6PC: AAV donor vector: canine G6Pc cDNA flanked by canine G6PC 5' and 3' homology arms (SEQ ID NO: 43) | no detectable integration events | efficacious in preventing hypoglycemia and improving survival | Higher copy numbers | detected | detected |  |  | 
AAV-G6Pase: gene replacement AAV vector delivering human G6Pase cDNA under a human G6Pase minimal promoter, episomal expression (SEQ ID NO: 49; Luo et al. 2011) [reference compound] |  |  |  | detected | detected | 29±8 % of normal | reversed their symptoms | < 0.1 vg/nucleus
